Assay results taken from ChEMBL document CHEMBL1130000, “Studies of pyrrolo[1,2-alpha]benzimidazolequinone DT-diaphorase substrate activity, topoisomerase II inhibition activity, and DNA reductive alkylation” (J Med Chem, 1997).

Columns and labels:
Format in all cases: functional
Rattus norvegicus = species: Rattus norvegicus; assay: Maximum velocity was determined for rat liver DT diaphorase substrate activity
Nucleic Acid [1] = assay: Compound tested for its selectivity for incorporation into poly(dA) DNA base pairs
Nucleic Acid [2] = assay: Compound tested for its selectivity for incorporation into poly(dA-dT) DNA base pairs
Nucleic Acid [3] = assay: Compound tested for its selectivity for incorporation into poly(dG) DNA base pairs

SMILES	Vmax (Rattus norvegicus)	Selectivity (Nucleic Acid [1])	Selectivity (Nucleic Acid [2])	Selectivity (Nucleic Acid [3])
CC(=O)N[C@H]1CCn2c1nc1c2C(=O)C(C)=C(N2CC2)C1=O	2.2 nM/s	32.7%	38%	12.1%
CCCCC1=C(NC(C)=O)C(=O)c2nc3n(c2C1=O)CCC3	18.1 nM/s	–	–	–
CCCCC1=C(NC(C)=O)C(=O)c2nc3n(c2C1=O)CCC3OC(C)=O (centres undefined)	15.4 nM/s	–	–	–
CC(=O)NC1=C(C)C(=O)c2c(nc3n2CCC3OC(=O)c2ccccc2)C1=O (racemic)	27.9 nM/s	–	–	–
CC(=O)NC1CCn2c1nc1c2C(=O)C(C)=C(N2CC2)C1=O (racemic)	8.3 nM/s	41.5%	28%	8.2%
CC(=O)OC1CCn2c1nc1c2C(=O)C(C)=C(N2CC2)C1=O (racemic)	66.5 nM/s	–	–	–
CCCCC1=C(N2CC2)C(=O)c2nc3n(c2C1=O)CCC3OC(C)=O (racemic)	8.5 nM/s	–	–	–
CC(=O)O[C@H]1CCn2c1nc1c2C(=O)C(C)=C(N2CC2)C1=O (stereo in doubt; (+))	83.4 nM/s	5.9%	–	–
CC(=O)O[C@H]1CCn2c1nc1c2C(=O)C(C)=C(N2CC2)C1=O (stereo in doubt; (-))	62.6 nM/s	8.5%	–	–

Second part, led by results:

Vmax (Rattus norvegicus)	SMILES	Selectivity (Nucleic Acid [1])	Selectivity (Nucleic Acid [2])	Selectivity (Nucleic Acid [3])
20.4 nM/s	CC(=O)NC1=C(C)C(=O)c2c(nc3n2CC[C@@H]3OC(C)=O)C1=O	–	–	–
14.6 nM/s	CC(=O)NC1=C(C)C(=O)c2c(nc3n2CC[C@H]3OC(C)=O)C1=O	–	–	–
16.7 nM/s	COCC(=O)O[C@@H]1CCn2c1nc1c2C(=O)C(C)=C(NC(C)=O)C1=O	–	–	–
28.2 nM/s	COCC(=O)O[C@H]1CCn2c1nc1c2C(=O)C(C)=C(NC(C)=O)C1=O	–	–	–
38.6 nM/s	CC(=O)NC1=C(C)C(=O)c2c(nc3n2CCC3OC(C)=O)C1=O (racemic)	–	–	–
42.3 nM/s	CCCC(=O)OC1CCn2c1nc1c2C(=O)C(C)=C(NC(C)=O)C1=O (racemic)	–	–	–
9.8 nM/s	COCC(=O)OC1CCn2c1nc1c2C(=O)C(C)=C(NC(C)=O)C1=O (racemic)	–	–	–
